Experiment in all cases: NCI tumour cell line growth inhibition, 48 h
The subject of assay [1] is 786-0 renal.
Assay [2] relates to ACHN renal.
In assay [3] the test system is BT-549 breast.
In assay [4] the test system is CAKI-1 renal.
The subject of assay [5] is HCT-116 colon.
Assay [6] concerns HT29 colon.
Assay [7] has as its system KM12 colon.
Assay [8] concerns M14 melanoma.
Assay [9] has as its system MDA-MB-231 breast.
The test system of assay [10] is NCI-H23 lung.
Assay [11] has as its system PC-3 prostate.
Assay [12] deals with SF-539 CNS.
Assay [13] relates to SK-MEL-2 melanoma.
Assay [14] relates to SK-MEL-5 melanoma.
The test system of assay [15] is SW-620 colon.
Assay [16] concerns T-47D breast.
Assay [17] deals with UACC-257 melanoma.
Assay [18] concerns HCC-2998 colon.
In assay [19] the test system is RXF 393 renal.
In assay [20] the test system is A498 renal.

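The compound was tested at five concentrations on cells cultured in 96-well plates, with a 48-hour exposure period. TGI marks complete inhibition of growth.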 Where a SMILES comes first, the peptide text is derived from it. The star is where a group is joined. Cbz = O=C(OCc1ccccc1)*

In the case of `CC(=O)N(C)CCc1c[nH]c2ccccc12`, the TGI in [1], in assay [2], in [3], in assay [4], in assay [5] and in [6] was over 100 µM in each case. The TGI in assay [7], in assay [8], in assay [9], in assay [10], in assay [11] and in assay [12] was over 100 µM throughout. For the same compound, the TGI in [13], in assay [14], in assay [15], in assay [16] and in assay [17] was over 100 µM throughout.

For the compound `CC1=C(/C=C/C(C)=C/C=C/C(C)=C/C(=O)OC2CC(n3cc(F)c(=O)[nH]c3=O)OC2CO)C(C)(C)CCC1` (stereo unspecified), the TGI was 16.7 µM in [1]; 11.6 µM in assay [2]; 22.3 µM in assay [3]; 16.9 µM in [4]; 26.8 µM in assay [18]; 14.4 µM in assay [5]. In addition, the TGI was found to be 21.5 µM in assay [6]; 31.4 µM in [7]; 17.4 µM in [8]; 29.4 µM in assay [9]; 20.7 µM in [10]; 20.8 µM in [11]. The TGI in assay [19] stood at 24 µM; in assay [12], 0.54 µM; in [13], 55.5 µM; in assay [14], 13.9 µM; in assay [15] it was 26.9 µM; in assay [16] it was 21.2 µM. For the same compound, in assay [17], the TGI worked out at 29.6 µM.

For `C=CCN1CCC(O)(c2cc(C(=O)OCC)[nH]c2-c2cc(C)no2)C1` (stereo unspecified), the TGI in assay [1], in assay [20], in assay [2], in assay [3], in assay [4] and in assay [5] was over 100 µM throughout. The TGI in assay [6], in assay [7], in assay [8], in assay [9], in assay [10] and in assay [11] was over 100 µM each time. Besides, the TGI in assay [19], in assay [12], in [13], in assay [14], in assay [15] and in assay [16] was over 100 µM each time. The TGI in assay [17] was over 100 µM.

Consider `Cc1ccc(Cl)c2c(=O)c3ccc(N)cc3sc12`, for which the TGI was over 100 µM in [1]; 36.8 µM in [20]; 57.5 µM in assay [2]; over 100 µM in assay [3]; over 100 µM in assay [4]; 35.1 µM in assay [5]. Further, the TGI in assay [6] is 38.5 µM; in [7], 33.4 µM; in [8] it was over 100 µM; in assay [9], 74.8 µM; in [10], 97.4 µM; in assay [11] it was 76.7 µM. The TGI in assay [19] stood at 59.3 µM; in [12], 45.1 µM; in assay [13] it was 44.6 µM; in [14] it was 37.7 µM; in [16] it was 87.1 µM; in [17], 90.7 µM.

On to `O=C(Cn1c(-c2ccccc2)cc2ccccc21)N1CCCC1`, for which the TGI in [1], in assay [2], in assay [3], in assay [5], in assay [6] and in assay [8] was over 100 µM throughout. The TGI in assay [9], in assay [11], in assay [13], in [14], in assay [15] and in [16] was over 100 µM in each case. For the same compound, the TGI in assay [17] was over 100 µM.

Regarding `CCOC(=O)Cc1ccc(Nc2nc3ccccc3nc2C(=O)OCC)cc1`, the TGI in assay [1] was over 100 µM; in [20], 86.7 µM; in [2], over 100 µM; in assay [3] it was over 100 µM; in assay [4], over 100 µM; in assay [5], over 100 µM. The TGI in assay [6] was over 100 µM; in assay [7], over 100 µM; in [8], over 100 µM; in assay [10] it was over 100 µM; in assay [11], over 100 µM; in assay [19], 74.4 µM. Also, the TGI in [12], in assay [13], in assay [14], in assay [15], in assay [16] and in [17] was over 100 µM in each case.

In the case of `Cc1ncc([N+](=O)[O-])n1CCNCCCCn1ccnc1[N+](=O)[O-]`, the TGI in [1], in assay [20], in [2], in assay [3], in [4] and in [5] was over 100 µM each time. Moreover, the TGI in [6], in [7], in [8], in [9], in [10] and in [11] was over 100 µM each time. Further, the TGI in assay [19], in assay [12], in assay [13], in [14], in assay [15] and in assay [16] was over 100 µM throughout. In addition, in [17], the TGI is over 100 µM.

In the case of `COC(=O)NC(C(F)(F)F)(C(F)(F)F)P1(=O)OCCCO1`, the TGI was over 100 µM in [1]; 38 µM in assay [20]; 54.2 µM in assay [2]; 68.3 µM in assay [3]; 62 µM in assay [5]; 63.9 µM in [6]. For the same compound, the TGI in assay [7] was 64.7 µM; in assay [8], over 100 µM; in [9] it was 62.9 µM; in assay [10], 50.9 µM; in [11] it was over 100 µM; in assay [19], 15 µM. In addition, the TGI in [12] is 43 µM; in [14], 40.6 µM; in [15] it was 82.4 µM; in [16], 84.3 µM.

Consider `CC1(C)OC[C@@H]([C@H](O)C2C=CC(=O)S2)O1` (stereo partly specified), for which the TGI in assay [1] came out at 59.3 µM; in [20] it was 51.1 µM; in [2] it was 49.2 µM; in [3], 47.5 µM; in assay [4] it was 72.4 µM; in assay [18] it was 33.5 µM. Further, the TGI was 27.3 µM in assay [5]; 55.5 µM in [6]; 30.1 µM in [7]; over 100 µM in assay [8]; 70 µM in assay [9]; 78.5 µM in assay [10]. Also, the TGI is over 100 µM in [11]; 53.5 µM in assay [19]; over 100 µM in assay [12]; 77.1 µM in assay [13]; 45.7 µM in [14]; 98.6 µM in assay [15]. The TGI in assay [17] is over 100 µM.

Turning to `O=c1oc2c/c(=C\c3ccc([N+](=O)[O-])cc3)c(=O)c3cccc1c3-2`, the TGI in assay [1], in [2], in assay [3], in [18], in assay [5] and in [6] was over 100 µM each time. The TGI in [7], in assay [8], in assay [9], in [10], in [11] and in assay [13] was over 100 µM each time. The TGI in assay [14], in assay [15], in [16] and in assay [17] was over 100 µM in each case.

In the case of `CC(NC(=O)C(NC(=O)OCc1ccccc1)C(C)C)C(=O)NCC(=O)O` (stereo not drawn) (Cbz-Val-Ala-Gly-OH; configuration not given here), the TGI in assay [1], in [2], in assay [3], in assay [4], in assay [18] and in assay [5] was over 100 µM in each case. In addition, the TGI in [6], in assay [7], in [8], in [9], in [10] and in assay [11] was over 100 µM in each case. The TGI in assay [19], in assay [12], in assay [13], in assay [14], in [15] and in [16] was over 100 µM throughout. Also, the TGI in assay [17] was over 100 µM.

Take `N#Cc1c(-c2ccc(Cl)cc2)c(C#N)c(=O)n(NS(=O)(=O)c2ccccc2)c1O`: the TGI in assay [1] is over 100 µM; in assay [20], 70.1 µM; in assay [2] it was over 100 µM; in assay [3], 32.8 µM; in assay [4] it was 48 µM; in assay [18], 35 µM. For the same compound, the TGI in assay [5] was 33.1 µM; in [6], over 100 µM; in assay [7], 77.8 µM; in [8], over 100 µM; in assay [9], 98.2 µM; in assay [11], 48.8 µM. The TGI is 69.6 µM in assay [19]; 55.6 µM in assay [12]; 44 µM in assay [13]; 32.3 µM in assay [14]; over 100 µM in [15]; over 100 µM in assay [17].

The values above are taken from PubChem BioAssay (NCI).
